Data taken from ChEMBL document CHEMBL4371038, “Synthesis and biological evaluation of novel 1-substituted 3-(3-phenoxyprop-1-yn-1-yl)-1H-pyrazolo[3,4-d]pyrimidin-4-amines as potent Bruton's tyrosine kinase (BTK) inhibitors” (Bioorg Med Chem Lett, 2019).
Values belong to the molecule of their own block, whether it stands above or below them.

Legend:
[1] = system: Ramos; assay: Antiproliferative activity against human Ramos cells after 48 hrs by CCK8 assay; format: functional, cell-based
[2] = biological target: T1, Tyrosine-protein kinase BTK (Homo sapiens, UniProt Q06187); assay: Inhibition of recombinant full-length human N-terminal GST-fused BTK (2 to 659 residues) expressed in baculovirus expression system at 1 uM using biotin-labelled peptide as substrate measured after 50 mins by TR-FRET assay relative to control
T1 sequence (Q06187 whole entry, the tested form may be a part): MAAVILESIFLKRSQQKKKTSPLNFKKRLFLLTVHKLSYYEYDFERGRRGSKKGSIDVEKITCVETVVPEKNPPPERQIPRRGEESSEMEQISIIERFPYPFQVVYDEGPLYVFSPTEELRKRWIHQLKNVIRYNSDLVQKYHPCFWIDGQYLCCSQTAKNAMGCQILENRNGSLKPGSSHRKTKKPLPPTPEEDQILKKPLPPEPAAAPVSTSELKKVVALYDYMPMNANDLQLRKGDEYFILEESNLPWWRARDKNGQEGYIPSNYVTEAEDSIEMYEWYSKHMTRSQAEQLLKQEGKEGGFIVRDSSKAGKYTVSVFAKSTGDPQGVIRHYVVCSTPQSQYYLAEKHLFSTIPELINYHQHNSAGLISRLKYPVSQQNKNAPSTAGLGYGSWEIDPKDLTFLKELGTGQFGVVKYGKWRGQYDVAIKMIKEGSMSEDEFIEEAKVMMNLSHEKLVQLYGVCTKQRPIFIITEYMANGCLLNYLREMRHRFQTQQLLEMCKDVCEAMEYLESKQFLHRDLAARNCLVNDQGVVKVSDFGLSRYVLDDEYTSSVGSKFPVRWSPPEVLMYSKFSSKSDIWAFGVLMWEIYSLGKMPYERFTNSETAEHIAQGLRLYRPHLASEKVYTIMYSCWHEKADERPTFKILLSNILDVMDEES

[3] = biological target: T1, Tyrosine-protein kinase BTK; assay: Inhibition of recombinant full-length human N-terminal GST-fused BTK (2 to 659 residues) expressed in baculovirus expression system using biotin-labelled peptide as substrate measured after 50 mins by TR-FRET assay
[4] = system: Raji; assay: Antiproliferative activity against human Raji cells after 48 hrs by CCK8 assay; format: functional, cell-based
[5] = system: SU-DHL-6; assay: Antiproliferative activity against human SU-DHL6 cells after 72 hrs by CellTiter-Glo luminescent cell viability assay; format: functional, cell-based; details: SU-DHL-6, 72 h
[6] = system: PBMC; assay: Cytotoxicity against human PBMC after 72 hrs by CellTiter-Glo luminescent cell viability assay; format: cell-based
[7] = system: DOHH-2; assay: Antiproliferative activity against human DOHH2 cells after 72 hrs by CellTiter-Glo luminescent cell viability assay; format: functional, cell-based; details: DOHH-2, 72 h
[8] = Antiproliferative activity against human Mino cells after 72 hrs by CellTiter-Glo luminescent cell viability assay; format: functional, cell-based
[9] = Antiproliferative activity against human WSU-DLCL2 cells after 72 hrs by CellTiter-Glo luminescent cell viability assay; format: functional, cell-based; details: WSUDLCL2, 72 h
[10] = Cytotoxicity against human PBMC assessed as inhibition of cell proliferation at 30 uM after 72 hrs by CellTiter-Glo luminescent cell viability assay relative to control; format: cell-based; details: PBMC (peripheral blood mononuclear cells)

SMILES: C=CC(=O)NCCn1nc(C#CCOc2ccccc2)c2c(N)ncnc21
- inhibition [2]: 27.1%

SMILES: C=CC(=O)N(C)CCn1nc(C#CCOc2ccccc2)c2c(N)ncnc21
- inhibition [2]: 48.5%

SMILES: C=CC(=O)N1CCC[C@H]1Cn1nc(C#CCOc2ccccc2)c2c(N)ncnc21
- inhibition [2]: 42.9%

SMILES: Nc1ncnc2c1c(C#CCOc1ccccc1)nn2[C@@H]1CCCN(C(=O)/C=C/Cn2cncn2)C1
- inhibition [2]: 76.3%

SMILES: Nc1ncnc2c1c(C#CCOc1ccccc1)nn2[C@@H]1CCCN(C(=O)/C=C/CN2CCOCC2)C1
- inhibition [2]: 86.1%

SMILES: C=CC(=O)N1CCC[C@@H](n2nc(-c3ccc(Oc4ccccc4)cc3)c3c(N)ncnc32)C1 [IBRUTINIB]
- IC50 [5]: 874 nM
- inhibition at 72 h, 30 µM [10]: 69%
- IC50 [7]: 33.4 nM
- IC50 [8]: 3150 nM
- IC50 [9]: 487 nM

SMILES: C=CC(=O)N[C@H]1CC[C@@H](n2nc(C#CCOc3ccccc3)c3c(N)ncnc32)CC1
- inhibition [2]: 101%
- IC50 [3]: 14.8 nM

Now from value to molecule, other results behind:

- IC50 [1]: 25800 nM
- inhibition [2]: 98.5%
- IC50 [3]: 7.8 nM
- IC50 [4]: 17600 nM
SMILES: C/C=C(\C#N)C(=O)N1CCC[C@@H](n2nc(C#CCOc3ccccc3)c3c(N)ncnc32)C1

- IC50 [5]: > 10000 nM
- IC50 [1]: 9060 nM
- inhibition [2]: 97.1%
- IC50 [3]: 11.1 nM
- IC50 [4]: 2090 nM
SMILES: N#C/C(=C\C1CC1)C(=O)N1CCC[C@@H](n2nc(C#CCOc3ccccc3)c3c(N)ncnc32)C1
- IC50 [6]: > 30000 nM
- IC50 [7]: > 10000 nM
- IC50 [8]: 8850 nM
- IC50 [9]: > 10000 nM

- inhibition [2]: 96.1%
- IC50 [3]: 18.8 nM
SMILES: C=CC(=O)N1CC[C@@H](n2nc(C#CCOc3ccccc3)c3c(N)ncnc32)C1

- inhibition [2]: 73.8%
SMILES: C=C(F)C(=O)N1CCC[C@@H](n2nc(C#CCOc3ccccc3)c3c(N)ncnc32)C1

- inhibition [2]: 92.2%
- IC50 [3]: 13.2 nM
SMILES: Nc1ncnc2c1c(C#CCOc1ccccc1)nn2[C@@H]1CCCN(C(=O)/C=C/CBr)C1

- IC50 [1]: > 40000 nM
- inhibition [2]: 99.6%
- IC50 [3]: 9.7 nM
- IC50 [4]: > 40000 nM
SMILES: CC(C)/C=C(\C#N)C(=O)N1CCC[C@@H](n2nc(C#CCOc3ccccc3)c3c(N)ncnc32)C1

- inhibition [2]: 99.7%
- IC50 [3]: 28.3 nM
SMILES: CC#CC(=O)N1CCC[C@@H](n2nc(C#CCOc3ccccc3)c3c(N)ncnc32)C1

- IC50 [1]: > 40000 nM
- inhibition [2]: 104%
- IC50 [3]: 4.2 nM
- IC50 [4]: > 40000 nM
SMILES: C=CS(=O)(=O)N1CCC[C@@H](n2nc(C#CCOc3ccccc3)c3c(N)ncnc32)C1

- IC50 [5]: 26.6 nM
- IC50 [1]: 9940 nM
- inhibition [2]: 102%
- IC50 [3]: 11.1 nM
- IC50 [4]: 2370 nM
SMILES: C#CC(=O)N1CCC[C@@H](n2nc(C#CCOc3ccccc3)c3c(N)ncnc32)C1
- IC50 [6]: 4120 nM
- IC50 [7]: 12.8 nM
- IC50 [8]: 67.9 nM
- IC50 [9]: 14.1 nM

- IC50 [5]: 1630 nM
SMILES: C=CC(=O)N1CCC[C@@H](n2nc(C#CCOc3ccccc3)c3c(N)ncnc32)C1
- IC50 [6]: > 30000 nM
- IC50 [7]: 18.1 nM
- IC50 [8]: 3730 nM
- IC50 [9]: 395 nM
